According to PubChem BioAssay AID1159565 (GlaxoSmithKline (GSK), 2015):

Tested on: T. cruzi-infected H9C2 cardiomyocytes, high-content imaging
Assay: intracellular T. cruzi amastigote inhibition, imaging, H9C2 host cardiomyocytes, host toxicity (AID 1159565);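 also: infected cells incubated 72 h after plating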
[1] = measured here: H9C2 host cell toxicity
[2] = measured here: amastigotes per cell

| SMILES | IC50 [nM] | IC50 [1] [nM] | IC50 [2] [nM] |
| --- | --- | --- | --- |
| NC(=O)c1ccsc1NC(=O)c1ccc([N+](=O)[O-])s1 | 130 | > 50000 | 100 |
| COc1ccc(-c2cnc(NC(=O)c3cc(-c4ccccn4)n[nH]3)n2C)cc1 | 5000 | > 50000 | 4000 |
| COc1ccc(NC(=O)c2ccc(NC(=O)CN(c3ccccc3C)S(C)(=O)=O)cc2)cc1 | 25000 | 25000 | 20000 |
| O=C1CSC(c2cccnc2)N1c1ccc(Cl)cc1Cl (stereo not drawn) | 250 | > 50000 | 160 |
| COc1ccc(C(=O)[C@H]2C[C@@H]2CN(Cc2ccccn2)Cc2ccccn2)cc1 | 1600 | 25000 | 1000 |
| O=S(=O)(NCC(c1cccnc1)N1CCN(c2ccc(F)cc2)CC1)c1cccs1 (stereo not drawn) | 130 | > 50000 | 130 |
| CCNc1cc(-c2ccccn2)nc(Nc2ccccc2)n1 | 3200 | 250 | 3200 |
| C[C@@H](Oc1cc(-n2cnc3ccc(C(O)CO)cc32)sc1C(N)=O)c1ccccc1C(F)(F)F (stereo partly drawn) | 20000 | 630 | 16000 |
| Cc1[nH]n2c(=O)c3c(nc2c1-c1ccc(Br)cc1)CCCC3 | 1600 | > 50000 | 790 |
| O=C(Nc1nc2cc(Cl)ccc2o1)c1cccc(Cl)c1 | 790 | 2500 | 630 |
| COc1ccc(-c2csc(NC(=O)c3ccc([N+](=O)[O-])s3)n2)cc1OC | 100 | 6300 | 79 |
| CC(=O)Nc1nc(-c2cc(C)ccc2C)c(C)s1 | 200 | > 50000 | 160 |
| COc1ccc(Nc2nc(-c3ccccn3)cs2)c(OC)c1 | 7900 | 2000 | 5000 |
| COc1ccc(-c2nc3ccncc3c(=O)n2CCOc2ccccc2)cc1 | 400 | > 50000 | 400 |
| CN(Cc1ccccc1)Cc1nnnn1C1CCN(Cc2ccc(-n3ccnc3)cc2)CC1 | 320 | > 50000 | 250 |
| Fc1ccc(OC2CC(NCc3cccc4cn[nH]c34)C2)cc1C(F)(F)F (stereo not drawn) | 200 | 7900 | 160 |
| COc1cc(OC)cc(C(NS(=O)(=O)c2ccc(Cl)c(C(F)(F)F)c2)c2nccn2C)c1 (stereo not drawn) | 6300 | 10000 | 3200 |
| O=C(Cn1cnc([N+](=O)[O-])n1)Nc1ccc(Cl)cc1C(=O)c1ccccc1 | 1300 | > 50000 | 320 |

| SMILES | IC50 [nM] | IC50 [1] [nM] | IC50 [2] [nM] |
| --- | --- | --- | --- |
| Cc1c(C(C)NC(=O)Nc2cccc(Cl)c2)sc2ncnn12 (stereo not drawn) | 200 | > 50000 | 160 |
| CN(Cc1ccc(C(N)=O)cc1)C(c1ccc(F)cc1)c1cccnc1 (stereo not drawn) | 250 | > 50000 | 200 |
| CC(c1ccccn1)N(C)Cc1nc2ccccc2n1C(C)C (stereo not drawn) | 6300 | > 50000 | 2000 |
| Cc1cc(NC(=O)CC2CCCCC2)n(-c2nc3c(c(=O)[nH]2)CCC3)n1 | 320 | 4000 | 130 |
| Cn1nc(-c2ccc(NC(=O)Cc3ccccc3Cl)cc2)c2c(N)ncnc21 | 1300 | 7900 | 1000 |
| COc1ccc(CN2C(=O)C(O)(CC(=O)c3ccncc3)c3cc(Br)ccc32)cc1OC (stereo not drawn) | 25000 | 2000 | 13000 |
| O=[N+]([O-])c1cccc(Nc2cncc(-c3ccccc3CO)c2)c1 | 400 | > 50000 | 250 |
| Cc1ccc(NC(=O)c2ccnc(N3CCCC3)c2)cc1-c1cc(C(N)=O)ccc1C | 10000 | > 50000 | 3200 |
| NS(=O)(=O)c1ccc(Nc2nccc(-c3cnn4ncccc34)n2)cc1 | 16000 | 320 | 790 |
| O=C(Nc1nc2ccccc2[nH]1)c1c(O)c2cccc3c2n(c1=O)CC3 | 16000 | 10000 | 25000 |
| CCN(CC)S(=O)(=O)c1ccc(OC)c(NC(=O)c2ccc([N+](=O)[O-])s2)c1 | 160 | > 50000 | 130 |
| O=c1oc2ccccc2n1C1CCN(Cc2ccccc2-c2cccnc2)CC1 | 320 | > 50000 | 400 |
| COc1cc(Cl)c(C)cc1NC(=O)c1ccc([N+](=O)[O-])s1 | 630 | 2500 | 500 |
| COc1ccc(-c2cc(C)no2)cc1S(=O)(=O)Nc1ccc(C)c(C)c1 | 7900 | 16000 | 5000 |
| O=C(c1cc2cc(Cl)ccc2[nH]1)N1CCCCC1c1cccnc1 (stereo not drawn) | 130 | 32000 | 130 |
| O=S(=O)(NCC(c1cccnc1)N1CCN(c2ccccc2F)CC1)c1ccc(F)cc1 (stereo not drawn) | 200 | > 50000 | 200 |
| COc1ccc(CNc2nsc3ccccc23)cc1OC | 25000 | > 50000 | 20000 |
| CCOc1ccc(NC(=O)C=Cc2ccc(CC)o2)cc1 | 25000 | > 50000 | 16000 |
